Assay results: the CheMixHub viscosity set

Test: xn = mol fraction of the nth substance listed

COc1ccccc1 + CO
Conditions | viscosity [mPa·s]
298.15 K, 101 kPa, x1 = 0.0501 | 0.586
298.15 K, 101 kPa, x1 = 0.1098 | 0.623
298.15 K, 101 kPa, x1 = 0.1821 | 0.662
298.15 K, 101 kPa, x1 = 0.2706 | 0.707
298.15 K, 101 kPa, x1 = 0.3822 | 0.756
298.15 K, 101 kPa, x1 = 0.5271 | 0.809
298.15 K, 101 kPa, x1 = 0.7214 | 0.886
298.15 K, 101.33 kPa, x1 = 0.1024 | 0.6111
298.15 K, 101.33 kPa, x1 = 0.2039 | 0.67
298.15 K, 101.33 kPa, x1 = 0.2982 | 0.7131
298.15 K, 101.33 kPa, x1 = 0.4027 | 0.7591
298.15 K, 101.33 kPa, x1 = 0.4998 | 0.8009
298.15 K, 101.33 kPa, x1 = 0.5991 | 0.8271
298.15 K, 101.33 kPa, x1 = 0.7068 | 0.8651
298.15 K, 101.33 kPa, x1 = 0.8061 | 0.8975
298.15 K, 101.33 kPa, x1 = 0.9023 | 0.9373
303 K, 101.3 kPa, x1 = 0.0499 | 0.5675
303 K, 101.3 kPa, x1 = 0.1091 | 0.6038
303 K, 101.3 kPa, x1 = 0.2686 | 0.6883
303 K, 101.3 kPa, x1 = 0.5242 | 0.7935
303 K, 101.3 kPa, x1 = 0.7199 | 0.8751
303.15 K, 101.33 kPa, x1 = 0.1024 | 0.574
303.15 K, 101.33 kPa, x1 = 0.2039 | 0.6257
303.15 K, 101.33 kPa, x1 = 0.2982 | 0.6672
303.15 K, 101.33 kPa, x1 = 0.4027 | 0.7035
303.15 K, 101.33 kPa, x1 = 0.4998 | 0.7455
303.15 K, 101.33 kPa, x1 = 0.5991 | 0.7718
303.15 K, 101.33 kPa, x1 = 0.7068 | 0.8059
303.15 K, 101.33 kPa, x1 = 0.8061 | 0.8374
303.15 K, 101.33 kPa, x1 = 0.9023 | 0.8779
308.15 K, 101.33 kPa, x1 = 0.1024 | 0.5506
308.15 K, 101.33 kPa, x1 = 0.2039 | 0.5983
308.15 K, 101.33 kPa, x1 = 0.2982 | 0.638
308.15 K, 101.33 kPa, x1 = 0.4027 | 0.6731
308.15 K, 101.33 kPa, x1 = 0.4998 | 0.7065
308.15 K, 101.33 kPa, x1 = 0.5991 | 0.735
308.15 K, 101.33 kPa, x1 = 0.7068 | 0.7683
308.15 K, 101.33 kPa, x1 = 0.8061 | 0.7978
308.15 K, 101.33 kPa, x1 = 0.9023 | 0.8373
313.15 K, 101.33 kPa, x1 = 0.1024 | 0.4934
313.15 K, 101.33 kPa, x1 = 0.2039 | 0.5372
313.15 K, 101.33 kPa, x1 = 0.2982 | 0.5706
313.15 K, 101.33 kPa, x1 = 0.4027 | 0.6023
313.15 K, 101.33 kPa, x1 = 0.4998 | 0.6345
313.15 K, 101.33 kPa, x1 = 0.5991 | 0.6601
313.15 K, 101.33 kPa, x1 = 0.7068 | 0.6865
313.15 K, 101.33 kPa, x1 = 0.8061 | 0.7174
313.15 K, 101.33 kPa, x1 = 0.9023 | 0.751

O=[N+]([O-])[O-].O=[N+]([O-])[O-].O=[N+]([O-])[O-].[Ce+3] + O
viscosity [mPa·s], 101.3 kPa
Conditions | x1 = 0.009125 | x1 = 0.01824 | x1 = 0.02724 | x1 = 0.03472 | x1 = 0.05339 | x1 = 0.06671 | x1 = 0.0744
293.15 K | 1.312 | 1.718 | 2.423 | 3.281 | 6.899 | 13.02 | 19.48
298.15 K | 1.174 | 1.529 | 2.169 | 2.911 | 5.937 | 10.99 | 16.06
308.15 K | 0.9509 | 1.249 | 1.734 | 2.299 | 4.599 | 8.055 | 11.34

C1CCOC1 + C1COCCO1
Conditions | viscosity [mPa·s]
298.15 K, 101 kPa, x2 = 0.5 | 0.6797

COc1ccccc1 + CCCCCO
viscosity [mPa·s], 101.33 kPa
Conditions | x1 = 0.1 | x1 = 0.1998 | x1 = 0.3002 | x1 = 0.4001 | x1 = 0.5 | x1 = 0.6002 | x1 = 0.6998 | x1 = 0.6999 | x1 = 0.8001 | x1 = 0.9
303.15 K | 2.369 | 1.911 | 1.658 | 1.447 | 1.26 | 1.109 | – | 1.046 | 0.952 | 0.914
313.15 K | 1.841 | 1.522 | 1.326 | 1.173 | 1.022 | 0.929 | – | 0.862 | 0.814 | 0.791
323.15 K | 1.403 | 1.172 | 1.062 | 0.953 | 0.853 | 0.792 | 0.745 | – | 0.708 | 0.696

O=S(=O)([O-])[O-].[Ca+2] + O
100 kPa
Conditions | viscosity [mPa·s]
303.15 K, x1 = 0.000281 | 0.7976
323.15 K, x1 = 0.000279 | 0.557

CC1COC(=O)O1 (stereo not drawn) + COC(=O)OC
298.15 K, 101.3 kPa
Conditions | viscosity [mPa·s]
x2 = 0.0944 | 2.217
x2 = 0.1815 | 1.965
x2 = 0.3215 | 1.618
x2 = 0.4861 | 1.287
x2 = 0.5752 | 1.138
x2 = 0.6827 | 0.98
x2 = 0.7254 | 0.924
x2 = 0.7801 | 0.856
x2 = 0.9012 | 0.724
